{"source": "the supplement of paper PMC10307832", "test_in_all_cases": "relative viability (nuclei count vs DMSO), 5 days (fraction); higher = more cells survive", "key": {"[1]": {"compound": "COC1=CC=C(C=C1)CN2C=CC3=C2C=C(C=C3)C(=O)NO + CCNC(=O)c1noc(-c2cc(C(C)C)c(O)cc2O)c1-c1ccc(CN2CCOCC2)cc1 [Luminespib] (partner 0.01 µM)", "in_short": "(§1)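 One day after seeding in 1536-well plates, lung cancer cell lines were dosed by pin tool. Dosing was either single-drug or a fixed anchor-drug dose plus five library-drug doses (not always all listed) in √10 steps. After 5 days, nuclei were stained in one fix-and-stain step and counted on 4× images, and relative viability is the nuclei count of treated wells over that of vehicle wells, given as the median of duplicate plates.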"}, "[2]": {"compound": "COC1=CC=C(C=C1)CN2C=CC3=C2C=C(C=C3)C(=O)NO + N=C(N)NC(=N)NCCc1ccccc1 [Phenformin] (partner 250 µM)", "in_short": "as §1"}, "Veliparib + Luminespib": {"compound": "C[C@]1(c2nc3c(C(N)=O)cccc3[nH]2)CCCN1 [Veliparib] + CCNC(=O)c1noc(-c2cc(C(C)C)c(O)cc2O)c1-c1ccc(CN2CCOCC2)cc1 [Luminespib] (partner 0.01 µM)", "in_short": "as §1"}, "Veliparib + Phenformin": {"compound": "C[C@]1(c2nc3c(C(N)=O)cccc3[nH]2)CCCN1 [Veliparib] + N=C(N)NC(=N)NCCc1ccccc1 [Phenformin] (partner 250 µM)", "in_short": "as §1"}}}
{"cell line": "SW 1573", "values": [{"measurement": "relative viability", "setting": "[1]; first compound 0.253 µM", "result": 0.522}, {"measurement": "relative viability", "setting": "[1]; first compound 0.8 µM", "result": 0.279}, {"measurement": "relative viability", "setting": "[1]; first compound 2.53 µM", "result": 0.298}, {"measurement": "relative viability", "setting": "[1]; first compound 8 µM", "result": 0.491}, {"measurement": "relative viability", "setting": "[2]; first compound 0.253 µM", "result": 0.368}, {"measurement": "relative viability", "setting": "[2]; first compound 0.8 µM", "result": 0.426}, {"measurement": "relative viability", "setting": "[2]; first compound 2.53 µM", "result": 0.379}, {"measurement": "relative viability", "setting": "[2]; first compound 8 µM", "result": 0.331}, {"measurement": "relative viability", "setting": "Veliparib + Luminespib; first compound 0.02 µM", "result": 0.169}, {"measurement": "relative viability", "setting": "Veliparib + Luminespib; first compound 0.06325 µM", "result": 0.204}, {"measurement": "relative viability", "setting": "Veliparib + Luminespib; first compound 0.2 µM", "result": 0.169}, {"measurement": "relative viability", "setting": "Veliparib + Luminespib; first compound 0.6325 µM", "result": 0.254}, {"measurement": "relative viability", "setting": "Veliparib + Luminespib; first compound 2 µM", "result": 0.214}, {"measurement": "relative viability", "setting": "Veliparib + Phenformin; first compound 0.06325 µM", "result": 0.32}, {"measurement": "relative viability", "setting": "Veliparib + Phenformin; first compound 0.2 µM", "result": 0.419}, {"measurement": "relative viability", "setting": "Veliparib + Phenformin; first compound 0.6325 µM", "result": 0.324}, {"measurement": "relative viability", "setting": "Veliparib + Phenformin; first compound 2 µM", "result": 0.4}]}
